Source: ChEMBL document CHEMBL5465560, “Selectivity Literature for EUbOPEN Chemogenomic Library” (2024)
Each block holds one compound with its values, some of them ahead of it.

What was measured:
[1] = biological target: T1, Dual serine/threonine and tyrosine protein kinase (Homo sapiens) (UniProt Q6XUX3); assay: Selectivity interaction (KinomeScan (DiscoverX)) EUB0001550a DSTYK; details: at 1 µM
T1 sequence (whole entry): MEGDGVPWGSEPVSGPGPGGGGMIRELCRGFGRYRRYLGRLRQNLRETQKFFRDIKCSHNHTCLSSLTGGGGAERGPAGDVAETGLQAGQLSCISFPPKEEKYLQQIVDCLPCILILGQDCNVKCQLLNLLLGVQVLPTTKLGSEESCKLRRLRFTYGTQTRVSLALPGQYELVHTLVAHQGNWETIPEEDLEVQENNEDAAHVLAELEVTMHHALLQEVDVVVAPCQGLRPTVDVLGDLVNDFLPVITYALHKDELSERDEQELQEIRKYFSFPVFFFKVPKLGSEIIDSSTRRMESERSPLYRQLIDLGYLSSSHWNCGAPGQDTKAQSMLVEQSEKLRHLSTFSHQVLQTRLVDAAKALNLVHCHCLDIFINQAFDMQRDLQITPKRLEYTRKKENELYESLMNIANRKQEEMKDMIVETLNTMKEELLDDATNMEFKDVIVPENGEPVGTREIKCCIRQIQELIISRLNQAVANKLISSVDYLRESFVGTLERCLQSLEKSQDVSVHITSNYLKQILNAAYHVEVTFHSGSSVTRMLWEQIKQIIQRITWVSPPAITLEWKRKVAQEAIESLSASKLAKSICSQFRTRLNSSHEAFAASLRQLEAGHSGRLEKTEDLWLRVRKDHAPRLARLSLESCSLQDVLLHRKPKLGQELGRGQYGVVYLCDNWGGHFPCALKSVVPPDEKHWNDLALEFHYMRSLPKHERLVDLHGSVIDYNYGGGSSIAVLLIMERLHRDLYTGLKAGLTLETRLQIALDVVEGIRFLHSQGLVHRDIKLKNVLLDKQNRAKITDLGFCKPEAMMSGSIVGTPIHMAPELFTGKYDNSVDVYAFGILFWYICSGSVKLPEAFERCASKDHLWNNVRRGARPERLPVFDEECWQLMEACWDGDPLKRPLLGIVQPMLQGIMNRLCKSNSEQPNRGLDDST

[2] = biological target: T2, Serine/threonine-protein kinase TAO2 (Homo sapiens) (UniProt Q9UL54); assay: Selectivity interaction (KinomeScan (DiscoverX)) EUB0000229b TAOK2; details: at 10 µM
T2 sequence (whole entry): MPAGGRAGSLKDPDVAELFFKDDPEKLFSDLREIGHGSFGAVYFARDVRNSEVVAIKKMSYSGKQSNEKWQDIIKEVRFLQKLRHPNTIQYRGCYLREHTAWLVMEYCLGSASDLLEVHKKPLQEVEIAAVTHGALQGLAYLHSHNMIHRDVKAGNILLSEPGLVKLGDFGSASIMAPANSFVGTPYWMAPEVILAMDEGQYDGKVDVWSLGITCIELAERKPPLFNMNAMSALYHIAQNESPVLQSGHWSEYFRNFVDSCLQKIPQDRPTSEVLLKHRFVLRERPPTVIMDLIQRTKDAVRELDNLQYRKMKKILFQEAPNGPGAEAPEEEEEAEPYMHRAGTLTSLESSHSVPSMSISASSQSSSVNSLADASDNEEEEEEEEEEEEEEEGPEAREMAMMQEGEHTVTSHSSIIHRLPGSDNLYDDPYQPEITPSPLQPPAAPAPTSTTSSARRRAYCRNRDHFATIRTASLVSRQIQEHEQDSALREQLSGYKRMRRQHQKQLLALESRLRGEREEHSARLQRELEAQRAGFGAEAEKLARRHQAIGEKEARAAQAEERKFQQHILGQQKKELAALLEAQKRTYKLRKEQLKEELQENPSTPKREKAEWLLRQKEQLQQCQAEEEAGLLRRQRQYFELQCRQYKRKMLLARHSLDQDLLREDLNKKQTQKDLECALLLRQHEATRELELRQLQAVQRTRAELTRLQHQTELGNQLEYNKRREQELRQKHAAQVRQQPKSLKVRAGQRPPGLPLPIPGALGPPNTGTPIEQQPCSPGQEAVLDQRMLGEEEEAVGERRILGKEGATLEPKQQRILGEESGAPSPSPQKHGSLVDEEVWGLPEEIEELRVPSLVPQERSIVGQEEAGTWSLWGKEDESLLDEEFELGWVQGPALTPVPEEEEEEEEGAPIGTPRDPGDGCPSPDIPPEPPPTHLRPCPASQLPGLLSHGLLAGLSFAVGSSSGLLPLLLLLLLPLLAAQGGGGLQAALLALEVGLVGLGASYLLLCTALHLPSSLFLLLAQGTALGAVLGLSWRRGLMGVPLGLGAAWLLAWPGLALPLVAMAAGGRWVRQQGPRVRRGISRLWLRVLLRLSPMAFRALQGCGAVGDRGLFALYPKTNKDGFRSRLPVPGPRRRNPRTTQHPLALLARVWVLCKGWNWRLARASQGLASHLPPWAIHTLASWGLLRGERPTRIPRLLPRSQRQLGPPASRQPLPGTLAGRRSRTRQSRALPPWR

[3] = biological target: Serine/threonine-protein kinase 26 (Homo sapiens, UniProt Q9P289); assay: Selectivity interaction (KinomeScan (DiscoverX)) EUB0000618a STK26; details: at 10 µM
Serine/threonine-protein kinase 26, sequence (Q9P289 2-416 limits assumed): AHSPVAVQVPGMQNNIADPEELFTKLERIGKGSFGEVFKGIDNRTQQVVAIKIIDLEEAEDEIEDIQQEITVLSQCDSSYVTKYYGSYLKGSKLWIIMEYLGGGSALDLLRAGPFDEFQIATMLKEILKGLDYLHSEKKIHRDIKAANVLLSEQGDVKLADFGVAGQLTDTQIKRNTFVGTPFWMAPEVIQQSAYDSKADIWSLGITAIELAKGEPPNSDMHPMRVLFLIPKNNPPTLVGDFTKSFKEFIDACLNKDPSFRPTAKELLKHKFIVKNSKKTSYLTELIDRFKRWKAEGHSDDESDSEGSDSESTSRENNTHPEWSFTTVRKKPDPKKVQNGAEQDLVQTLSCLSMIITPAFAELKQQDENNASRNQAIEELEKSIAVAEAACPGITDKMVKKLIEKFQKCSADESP

[4] = biological target: T3, Serine/threonine-protein kinase Chk1 (Homo sapiens) (UniProt O14757); assay: Selectivity interaction (KinomeScan (DiscoverX)) EUB0000607a CHEK1; details: at 10 µM
T3 sequence (whole entry): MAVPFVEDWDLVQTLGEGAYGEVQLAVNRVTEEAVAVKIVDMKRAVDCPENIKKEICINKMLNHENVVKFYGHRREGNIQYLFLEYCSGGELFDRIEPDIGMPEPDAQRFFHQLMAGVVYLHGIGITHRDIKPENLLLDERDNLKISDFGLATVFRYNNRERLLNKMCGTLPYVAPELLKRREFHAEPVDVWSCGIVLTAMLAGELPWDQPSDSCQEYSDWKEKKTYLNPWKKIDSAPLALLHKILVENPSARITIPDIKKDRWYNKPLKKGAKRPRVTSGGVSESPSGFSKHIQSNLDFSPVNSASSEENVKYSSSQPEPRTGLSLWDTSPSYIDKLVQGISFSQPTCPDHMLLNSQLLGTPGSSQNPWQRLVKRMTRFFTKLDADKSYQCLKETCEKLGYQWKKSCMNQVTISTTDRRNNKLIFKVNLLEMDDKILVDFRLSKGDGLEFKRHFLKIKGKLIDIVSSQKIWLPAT

% of control [1]: 5.2%
Structure (SMILES): CN(C)CC#Cc1ccc2[nH]c3c(c2c1)-c1nc(N)ncc1CCC3

Structure (SMILES): COc1cc(N(C)c2ccnc3ccc(C(F)(F)F)cc23)cc(OC)c1OC
% binding [2]: 80%

Structure (SMILES): O[C@H]1CC[C@H](Nc2ncc3nc(Nc4c(F)cc(F)cc4F)n([C@H]4CCOC4)c3n2)CC1
% of control [3]: 82%

Structure (SMILES): CNC(=O)Nc1ccc(-c2nc(N3CC4CCC(C3)O4)c3cnn(C4CCC5(CC4)OCCO5)c3n2)cc1
% of control [4]: 100%
